Patent US12679878B2, “CRF2 receptor agonists and their use in therapy” (SANOFI, priority 2020, dated 2026)
Starred links: 1 amine or outer side, 2 acyl side, 3 side chain; linkers in the order of their positions; H or OH if unused. Non-standard residues stand in square brackets, D forms with d. Residues, ends and D or L forms follow the SMILES beside them. Groups on a side chain read outwards from the residue. *: point of attachment. C18 diacid = O=C(O)CCCCCCCCCCCCCCCCC(=O)*; γGlu = O=C(O)[C@H](CCC(=O)[*:2])N[*:1]; AEEA = NCCOCCOCC(=O)O; Aib = CC(C)(N)C(=O)O

Assay: Effect on blood pressure, telemetry (Example 17)
Format: in vivo
Settings: Sprague Dawley rats, 0.1 mg/kg SC
Experimental: The effect of the compounds on blood pressure was determined in telemetry studies in Sprague Dawley rats at a dosage of 0.1 mg/kg SC.
The rats were previously implanted with a telemetry device (DSI, Saint-Paul, USA, HD-S10, HD-S11 or HD S21) and allowed to recover for a minimum period of 2 weeks before treatment with vehicle or the different peptides. Blood pressure (BP) was recorded through a catheter inserted into the abdominal aorta. The device body was placed in the abdomen. At the end of surgery, animals were placed in individual cages until the end of the study.
Pressure signals were recorded for one hour before the treatment (basal period). Thereafter, the subcutaneous administration of the test compound or its vehicle was performed, under continuous recording of the signal over a 48-hour period. Data acquisition was performed using Hem 4.3 acquisition software (Notocord®, Le Pecq, France) connected to the telemetry device. Hemodynamic parameters were recorded during a […] before treatment and every 4-hour period following subcutaneous administration over 48 hours.
Investigated parameters (calculated from BP signal) were Heart Rate (HR) in beats per minute (bpm), Diastolic and Systolic Blood Pressure (DBP) in mmHg, and Mean Blood Pressure (MBP) in mmHg.
Data from Hem were manipulated using Microsoft Excel®. For each parameter, a basal value was determined as the average calculated over a 1-hour period during the pre-treatment sequence, and the values post treatment were calculated over 4-hour periods ([0-4], [4-8], [8-12], [12-16], [16-20], [20-24], [24-28], [32-36], [36-40], [40-44] and [44-48] hours) covering the 48-hour period following administration.
Representative data are presented in Table 15 below, in which “n” represents the number of animals for which individual values were obtained and “Duration” indicates the last time point for which a significant effect on BP was still seen: Table 15

Compound	Duration (h): last time point for which a significant effect on BP was still seen [h]	Effect on Systolic Pressure % change from baseline 8 h [%]	Effect on Systolic Pressure % change from baseline 24 h [%]
CC[C@H](C)[C@H](N)C(=O)N[C@H](C(=O)N[C@@H](CC(C)C)C(=O)N[C@@H](CO)C(=O)N[C@@H](CC(C)C)C(=O)N[C@@H](CC(=O)O)C(=O)N[C@@H](C(=O)N1CCC[C@H]1C(=O)N[C@H](C(=O)N[C@@H](CCCCN)C(=O)N[C@@H](CC(C)C)C(=O)N[C@@H](CCCCNC(=O)COCCOCCNC(=O)COCCOCCNC(=O)CC[C@H](NC(=O)CCCCCCCCCCCCCCCCC(=O)O)C(=O)O)C(=O)N[C@@H](CCC(N)=O)C(=O)N[C@H](C(=O)N[C@@H](CC(C)C)C(=O)N[C@@H](CC(C)C)C(=O)N[C@@H](CCCCN)C(=O)N[C@@H](CCC(N)=O)C(=O)N[C@@H](C)C(=O)N[C@@H](CCCNC(=N)N)C(=O)N[C@@H](CCC(N)=O)C(=O)N[C@@H](CCCCN)C(=O)NC(C)(C)C(=O)N[C@@H](CCC(N)=O)C(=O)N[C@@H](CCCNC(=N)N)C(=O)N[C@@H](C)C(=O)N[C@@H](CCC(N)=O)C(=O)N[C@@H](C)C(=O)N[C@@H](CCC(=O)O)C(=O)N[C@@H](CCCCN)C(=O)N[C@@H](CC(N)=O)C(=O)N[C@@H](CCCCN)C(=O)N[C@@H](CCCNC(=N)N)C(=O)N[C@H](C(=O)N[C@@H](CC(C)C)C(=O)N[C@@H](CCC(=O)O)C(=O)N[C@@H](CCCNC(=N)N)C(=O)N[C@H](C(N)=O)C(C)C)[C@@H](C)CC)[C@@H](C)CC)[C@@H](C)CC)C(C)C)C(C)C [SEQ ID NO: 141, IVLSLDvPIKLK*QILLKQARQKAibQRAQAEKNKRILERV-NH2] (H-IVLSLD[dV]PIKLK([AEEA-AEEA-γGlu-C18 diacid])QILLKQARQK[Aib]QRAQAEKNKRILERV-NH2)	24	−5.2	−4.2
CC[C@H](C)[C@H](N)C(=O)N[C@H](C(=O)N[C@@H](CC(C)C)C(=O)N[C@@H](CO)C(=O)N[C@@H](CC(C)C)C(=O)N[C@@H](CC(=O)O)C(=O)N[C@@H](C(=O)N1CCC[C@H]1C(=O)N[C@H](C(=O)N[C@@H](CCCCN)C(=O)N[C@@H](CC(C)C)C(=O)N[C@@H](CCCCNC(=O)COCCOCCNC(=O)COCCOCCNC(=O)CC[C@H](NC(=O)CCCCCCCCCCCCCCCCC(=O)O)C(=O)O)C(=O)N[C@@H](CCC(N)=O)C(=O)N[C@H](C(=O)N[C@@H](CC(C)C)C(=O)N[C@@H](CC(C)C)C(=O)N[C@@H](CCC(=O)O)C(=O)N[C@@H](CCC(N)=O)C(=O)N[C@@H](C)C(=O)N[C@@H](CCCNC(=N)N)C(=O)N[C@@H](CCC(N)=O)C(=O)N[C@@H](CCCCN)C(=O)NC(C)(C)C(=O)N[C@@H](CCC(N)=O)C(=O)N[C@@H](CCCNC(=N)N)C(=O)N[C@@H](CCC(=O)O)C(=O)N[C@@H](CCC(N)=O)C(=O)N[C@@H](C)C(=O)N[C@@H](CCC(=O)O)C(=O)N[C@@H](CCCCN)C(=O)N[C@@H](CC(N)=O)C(=O)N[C@@H](CCCCN)C(=O)N[C@@H](CCCNC(=N)N)C(=O)N[C@H](C(=O)N[C@@H](CC(C)C)C(=O)N[C@@H](CCC(=O)O)C(=O)N[C@@H](CCCNC(=N)N)C(=O)N[C@H](C(N)=O)C(C)C)[C@@H](C)CC)[C@@H](C)CC)[C@@H](C)CC)C(C)C)C(C)C [SEQ ID NO: 142, IVLSLDvPIKLK*QILLEQARQKAibQREQAEKNKRILERV-NH2] (H-IVLSLD[dV]PIKLK([AEEA-AEEA-γGlu-C18 diacid])QILLEQARQK[Aib]QREQAEKNKRILERV-NH2)	30	−22.2	−6.5
CC[C@H](C)[C@H](N)C(=O)N[C@H](C(=O)N[C@@H](CC(C)C)C(=O)N[C@@H](CO)C(=O)N[C@@H](CC(C)C)C(=O)N[C@@H](CC(=O)O)C(=O)N[C@@H](C(=O)N1CCC[C@H]1C(=O)N[C@H](C(=O)N[C@@H](CCCCN)C(=O)N[C@@H](CC(C)C)C(=O)N[C@@H](CCCCNC(=O)COCCOCCNC(=O)COCCOCCNC(=O)CC[C@H](NC(=O)CCCCCCCCCCCCCCCCC(=O)O)C(=O)O)C(=O)N[C@@H](CCC(N)=O)C(=O)N[C@H](C(=O)N[C@@H](CC(C)C)C(=O)N[C@@H](CC(C)C)C(=O)N[C@@H](CCCCN)C(=O)N[C@@H](CCC(N)=O)C(=O)N[C@@H](CCC(=O)O)C(=O)N[C@@H](CCCNC(=N)N)C(=O)N[C@@H](CCC(N)=O)C(=O)N[C@@H](CCCCN)C(=O)N[C@@H](CCCCN)C(=O)NC(C)(C)C(=O)N[C@@H](CCCNC(=N)N)C(=O)N[C@@H](CCC(=O)O)C(=O)N[C@@H](CCC(N)=O)C(=O)N[C@@H](C)C(=O)N[C@@H](CCC(=O)O)C(=O)N[C@H](C(=O)N[C@@H](CC(N)=O)C(=O)N[C@@H](CCCCN)C(=O)N[C@@H](CCCNC(=N)N)C(=O)N[C@H](C(=O)N[C@@H](CC(C)C)C(=O)N[C@@H](CCC(=O)O)C(=O)N[C@@H](CCCNC(=N)N)C(=O)N[C@H](C(N)=O)C(C)C)[C@@H](C)CC)[C@@H](C)O)[C@@H](C)CC)[C@@H](C)CC)C(C)C)C(C)C [SEQ ID NO: 149, IVLSLDvPIKLK*QILLKQERQKKAibREQAETNKRILERV-NH2] (H-IVLSLD[dV]PIKLK([AEEA-AEEA-γGlu-C18 diacid])QILLKQERQKK[Aib]REQAETNKRILERV-NH2)	30	−11.5	−2.5
CC[C@H](C)[C@H](N)C(=O)N[C@H](C(=O)N[C@@H](CC(C)C)C(=O)N[C@@H](CO)C(=O)N[C@@H](CC(C)C)C(=O)N[C@@H](CC(=O)O)C(=O)N[C@@H](C(=O)N1CCC[C@H]1C(=O)N[C@H](C(=O)NCC(=O)N[C@@H](CC(C)C)C(=O)N[C@@H](CCCCNC(=O)COCCOCCNC(=O)COCCOCCNC(=O)CC[C@H](NC(=O)CCCCCCCCCCCCCCCCC(=O)O)C(=O)O)C(=O)N[C@@H](CCC(N)=O)C(=O)N[C@H](C(=O)N[C@@H](CC(C)C)C(=O)N[C@@H](CC(C)C)C(=O)N[C@@H](CCCCN)C(=O)N[C@@H](CCC(N)=O)C(=O)N[C@@H](CCC(=O)O)C(=O)N[C@@H](CCCNC(=N)N)C(=O)N[C@@H](CCC(N)=O)C(=O)N[C@@H](CCCCN)C(=O)N[C@@H](CCCCN)C(=O)NC(C)(C)C(=O)N[C@@H](CCCNC(=N)N)C(=O)N[C@@H](CCC(=O)O)C(=O)N[C@@H](CCC(N)=O)C(=O)N[C@@H](C)C(=O)N[C@@H](CCC(=O)O)C(=O)N[C@@H](CCCCN)C(=O)N[C@@H](CC(N)=O)C(=O)N[C@@H](CCCCN)C(=O)N[C@@H](CCCNC(=N)N)C(=O)N[C@H](C(=O)N[C@@H](CC(C)C)C(=O)N[C@@H](CCC(=O)O)C(=O)N[C@@H](CCCNC(=N)N)C(=O)N[C@H](C(N)=O)C(C)C)[C@@H](C)CC)[C@@H](C)CC)[C@@H](C)CC)C(C)C)C(C)C [SEQ ID NO: 151, IVLSLDvPIGLK*QILLKQERQKKAibREQAEKNKRILERV-NH2] (H-IVLSLD[dV]PIGLK([AEEA-AEEA-γGlu-C18 diacid])QILLKQERQKK[Aib]REQAEKNKRILERV-NH2)	28	−12.3	−3.8
CC[C@H](C)[C@H](N)C(=O)N[C@H](C(=O)N[C@@H](CC(C)C)C(=O)N[C@@H](CO)C(=O)N[C@@H](CC(C)C)C(=O)N[C@@H](CC(=O)O)C(=O)N[C@H](C(=O)N1CCC[C@H]1C(=O)N[C@H](C(=O)N[C@@H](CCCCN)C(=O)N[C@@H](CC(C)C)C(=O)N[C@@H](CCCCNC(=O)COCCOCCNC(=O)COCCOCCNC(=O)CC[C@H](NC(=O)CCCCCCCCCCCCCCCCC(=O)O)C(=O)O)C(=O)N[C@@H](CCC(N)=O)C(=O)N[C@H](C(=O)N[C@@H](CC(C)C)C(=O)N[C@@H](CC(C)C)C(=O)N[C@@H](CCCCN)C(=O)N[C@@H](CCC(N)=O)C(=O)N[C@@H](CCC(=O)O)C(=O)N[C@@H](CCCNC(=N)N)C(=O)N[C@@H](CCC(N)=O)C(=O)N[C@@H](CCCCN)C(=O)N[C@@H](CCCCN)C(=O)NC(C)(C)C(=O)N[C@@H](CCCNC(=N)N)C(=O)N[C@@H](CCC(=O)O)C(=O)N[C@@H](CCC(N)=O)C(=O)N[C@@H](C)C(=O)N[C@@H](CCC(=O)O)C(=O)N[C@H](C(=O)N[C@@H](CC(N)=O)C(=O)N[C@@H](CCCCN)C(=O)N[C@@H](CCCNC(=N)N)C(=O)N[C@H](C(=O)N[C@@H](CC(C)C)C(=O)N[C@@H](CCC(=O)O)C(=O)N[C@@H](CCCNC(=N)N)C(=O)N[C@H](C(N)=O)C(C)C)[C@@H](C)CC)[C@@H](C)O)[C@@H](C)CC)[C@@H](C)CC)C(C)C)C(C)C [SEQ ID NO: 152, IVLSLDVPIKLK*QILLKQERQKKAibREQAETNKRILERV-NH2] (H-IVLSLDVPIKLK([AEEA-AEEA-γGlu-C18 diacid])QILLKQERQKK[Aib]REQAETNKRILERV-NH2)	20	−8.6	−6.0
